This note sets out measurements from patent publication US10112937B2, “P2X7 modulators and methods of use” (Janssen Pharmaceutica NV, priority 2013, dated 2018).

In the first experiment the target is human P2X7 (Homo sapiens (Human), UniProt Q99572). In words: P2X7 antagonism in human PBMCs (IL-1β release after LPS + Bz-ATP, ELISA). In kind it is cell-based. To be noted: 10 μM test compound, human PBMCs, LPS + Bz-ATP.
human P2X7, sequence (Q99572 whole entry): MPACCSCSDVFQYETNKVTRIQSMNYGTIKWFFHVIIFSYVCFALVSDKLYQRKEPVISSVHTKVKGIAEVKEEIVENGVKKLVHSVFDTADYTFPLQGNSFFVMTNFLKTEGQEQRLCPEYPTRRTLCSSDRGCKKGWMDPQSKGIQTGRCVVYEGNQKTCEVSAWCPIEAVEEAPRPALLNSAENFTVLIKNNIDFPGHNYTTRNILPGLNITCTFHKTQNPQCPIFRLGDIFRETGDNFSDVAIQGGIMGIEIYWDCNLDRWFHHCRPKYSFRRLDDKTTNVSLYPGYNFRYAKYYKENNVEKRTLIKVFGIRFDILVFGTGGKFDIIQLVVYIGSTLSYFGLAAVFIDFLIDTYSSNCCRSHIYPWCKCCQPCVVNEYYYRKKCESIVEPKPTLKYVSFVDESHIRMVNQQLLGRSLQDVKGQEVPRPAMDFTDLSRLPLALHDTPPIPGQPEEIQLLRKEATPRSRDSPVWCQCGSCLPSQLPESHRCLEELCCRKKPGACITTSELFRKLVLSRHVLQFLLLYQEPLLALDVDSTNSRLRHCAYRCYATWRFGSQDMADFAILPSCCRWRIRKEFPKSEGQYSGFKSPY
Experimental: P2X7 Antagonism in Human Peripheral Blood Mononuclear Cells (PBMCs) and Human Whole Blood.
Human blood was collected using a blood donor program. PBMCs were isolated from blood using a Ficoll density gradient technique. Briefly, blood was laid on Ficoll solution and centrifuged at RT for 20 minutes at 2000 rpm. The buffy layer (between red blood cells and plasma) was carefully collected by aspiration, washed with PBS and centrifuged again at 1500 rpm for 15 minutes. The resulting cell pellet was washed and plated on 96 well-plates for experiments. For the Human Whole Blood experiments, 150 μl of human blood was platted on 96 well-plates. Lipopolysaccharide (LPS) (30 ng/ml) was added to each well and incubated for 1 hour. Test compounds were then added and incubated for 30 minutes. The P2X7 agonist, 2′(3′)-O-(4-benzoylbenzoyl) adenosine 5′ triphosphate (Bz-ATP) was then added at a final concentration of 0.5 mM (PBMC) or 1 mM (blood). Cells were incubated for an additional 1.5 hours. At that point, supernatant was collected and stored for IL-1β assay using manufacturer's protocol for enzyme-linked immunosorbent assay (ELISA). Data was expressed as percent control, where control is defined as the difference in IL-1β release in LPS+Bz-ATP samples and LPS only samples. Data was plotted as response (% control) versus concentration to generate IC50 values. […] Data are analyzed and graphed on Graphpad Prism 5. For analysis, each concentration point is averaged from triplicate values and the averaged values are plotted on Graphpad Prism.
Turning to `CC(C)n1ccc(-n2nnc3c2CCN(C(=O)c2cccc(C(F)(F)F)c2Cl)[C@H]3C)n1` [Example 413, (S)-(2-chloro-3-(trifluoromethyl)phenyl)(1-(1-isopropyl-1H-pyrazol-3-yl)-4-methyl-6,7-dihydro-1H-[1,2,3]triazolo[4,5-c]pyridin-5(4H)-yl)methanone], the “PBMC 10 μM (% control)” value amounted to 68.5 % control.

Staying with this experiment, now noted: human PBMCs, test compound 1 μM.
For the compound `O=C(c1cccc(Cl)c1Cl)N1CCc2c(ncn2-c2ccccc2)C1` [Example 3, (2,3-Dichlorophenyl)(1-phenyl-6,7-dihydro-1H-imidazo[4,5-c]pyridin-5(4H)-yl)methanone], the “PBMC 1 μM (% control)” value was determined as 23.0 % control.

On to `CC1c2ncn(-c3ccc(F)cc3)c2CCN1C(=O)c1cccc(C(F)(F)F)c1Cl` (centres unmarked) [Example 18, (2-Chloro-3-(trifluoromethyl)phenyl)(1-(4-fluorophenyl)-4-methyl-6,7-dihydro-1H-imidazo[4,5-c]pyridin-5(4H)-yl)methanone], for which the “PBMC 1 μM (% control)” value worked out at 5.3 % control.

Still in this experiment, the particulars now being: human PBMCs, test compound 10 μM.
Turning to `Cc1c(C(=O)N2CCc3c(nnn3-c3ncccn3)C2C)cccc1C(F)(F)F` (centres unmarked) [Example 282, (4-methyl-1-(pyrimidin-2-yl)-6,7-dihydro-1H-[1,2,3]triazolo[4,5-c]pyridin-5(4H)-yl)(2-methyl-3-(trifluoromethyl)phenyl)methanone], the “PBMC 10 μM (% control)” value is on record as −5.5 % control.

Take `Cc1ccc(-n2nnc3c2CCN(C(=O)c2cccc(C(F)(F)F)c2Cl)C3C)nc1` (centres unmarked) [Example 301, (2-chloro-3-(trifluoromethyl)phenyl)(4-methyl-1-(5-methylpyridin-2-yl)-6,7-dihydro-1H-[1,2,3]triazolo[4,5-c]pyridin-5(4H)-yl)methanone]: the “PBMC 10 μM (% control)” value is listed as −2.2 % control.

As for `CC1Cc2c(nnn2-c2ccccn2)CN1C(=O)c1cccc(Cl)c1Cl` (centres unmarked) [Example 120, 5-[(2,3-Dichlorophenyl)carbonyl]-6-methyl-1-pyridin-2-yl-4,5,6,7-tetrahydro-1H-[1,2,3]triazolo[4,5-c]pyridine], the “PBMC 10 μM (% control)” value is on record as −3.8 % control.

As for `C[C@@H]1c2nnn(-c3ncc(F)cn3)c2CCN1C(=O)c1cccc(C(F)(F)F)c1Cl` [Example 158, (R)-(2-chloro-3-(trifluoromethyl)phenyl)(1-(5-fluoropyrimidin-2-yl)-4-methyl-6,7-dihydro-1H-[1,2,3]triazolo[4,5-c]pyridin-5(4H)-yl)methanone], the “PBMC 10 μM (% control)” value was determined as 1.1 % control.

With `CC1Cc2c(nnn2-c2ncccc2F)CN1C(=O)c1cccc(C(F)(F)F)c1Cl` (centres unmarked) [Example 122, 5-{[2-Chloro-3-(trifluoromethyl)phenyl]carbonyl}-1-(3-fluoropyridin-2-yl)-6-methyl-4,5,6,7-tetrahydro-1H-[1,2,3]triazolo[4,5-c]pyridine], the “PBMC 10 μM (% control)” value is 0.2 % control.

Take `CC1Cc2c(nnn2-c2ccc(F)cc2)C(C)N1C(=O)c1cccc(Cl)c1Cl` (centres unmarked) [Example 242, (2,3-Dichlorophenyl)(1-(4-fluorophenyl)-4,6-dimethyl-6,7-dihydro-1H-[1,2,3]triazolo[4,5-c]pyridin-5(4H)-yl)methanone]: the “PBMC 10 μM (% control)” value is −3.4 % control.

For `O=C(c1ccc(F)cc1Cl)N1CCc2c(nnn2-c2ccccn2)C1` [Example 117, (2-Chloro-4-fluorophenyl)(1-(pyridin-2-yl)-6,7-dihydro-1H-[1,2,3]triazolo[4,5-c]pyridin-5(4H)-yl)methanone], the “PBMC 10 μM (% control)” value came to 4.3 % control.

For the compound `C[C@@H]1Cc2c(nnn2-c2ccc(F)cc2)[C@H](C)N1C(=O)c1cccc(C(F)(F)F)c1Cl` [Example 286, (2-chloro-3-(trifluoromethyl)phenyl)((4S,6R)-1-(4-fluorophenyl)-4,6-dimethyl-6,7-dihydro-1H-[1,2,3]triazolo[4,5-c]pyridin-5(4H)-yl)methanone], the “PBMC 10 μM (% control)” value was found to be 5.8 % control.

For the compound `CC1Cc2c(nnn2-c2ccccn2)CN1C(=O)c1ccc(F)c(Cl)c1Cl` (centres unmarked) [Example 121, 5-[(2,3-Dichloro-4-fluorophenyl)carbonyl]-6-methyl-1-pyridin-2-yl-4,5,6,7-tetrahydro-1H-[1,2,3]triazolo[4,5-c]pyridine], the “PBMC 10 μM (% control)” value is on record as −0.2 % control.

With `Cc1c(C(=O)N2CCc3c(nnn3-c3cnccn3)C2)cccc1C(F)(F)F` [Example 276, (2-methyl-3-(trifluoromethyl)phenyl)(1-(pyrazin-2-yl)-6,7-dihydro-1H-[1,2,3]triazolo[4,5-c]pyridin-5(4H)-yl)methanone], the “PBMC 10 μM (% control)” value was −0.9 % control.

As to `Cc1c(C(=O)N2CCc3c(nnn3-c3ncccn3)[C@@H]2C)cccc1C(F)(F)F` (single isomer, unassigned) [Example 197, (S*)-(4-methyl-1-(pyrimidin-2-yl)-6,7-dihydro-1H-[1,2,3]triazolo[4,5-c]pyridin-5(4H)-yl)(2-methyl-3-(trifluoromethyl)phenyl)methanone], the “PBMC 10 μM (% control)” value is 2.1 % control.

Consider `O=C(c1ccc(Cl)cc1F)N1CCc2c(nnn2-c2ccccn2)C1` [Example 129, (4-Chloro-2-fluorophenyl)(1-(pyridin-2-yl)-6,7-dihydro-1H-[1,2,3]triazolo[4,5-c]pyridin-5(4H)-yl)methanone], for which the “PBMC 10 μM (% control)” value was determined as 8.4 % control.

As for `Cc1ccnc(-n2nnc3c2CCN(C(=O)c2ccnc(C(F)(F)F)c2Cl)C3C)c1` (centres unmarked) [Example 358, (3-chloro-2-(trifluoromethyl)pyridin-4-yl)(4-methyl-1-(4-methylpyridin-2-yl)-6,7-dihydro-1H-[1,2,3]triazolo[4,5-c]pyridin-5(4H)-yl)methanone], the “PBMC 10 μM (% control)” value is listed as −0.7 % control.

With `O=C(c1cccc(C(F)(F)F)c1F)N1CCc2c(nnn2-c2cnccn2)C1` [Example 69, 5-{[2-Fluoro-3-(trifluoromethyl)phenyl]carbonyl}-1-pyrazin-2-yl-4,5,6,7-tetrahydro-1H-[1,2,3]triazolo[4,5-c]pyridine], the “PBMC 10 μM (% control)” value is 6.8 % control.

Regarding `C[C@H]1c2nnn(-c3ncc(F)cn3)c2CCN1C(=O)c1cccc(C(F)(F)F)c1F` (single isomer, unassigned) [Example 178, (S*)-(2-fluoro-3-(trifluoromethyl)phenyl)(1-(5-fluoropyrimidin-2-yl)-4-methyl-6,7-dihydro-1H-[1,2,3]triazolo[4,5-c]pyridin-5(4H)-yl)methanone], the “PBMC 10 μM (% control)” value is −4.7 % control.

Take `CC1Cc2c(nnn2-c2ccc(F)cc2)C(C)N1C(=O)c1cccc(C(F)(F)F)c1Cl` (centres unmarked) [Example 243, (2-Chloro-3-(trifluoromethyl)phenyl)(1-(4-fluorophenyl)-4,6-dimethyl-6,7-dihydro-1H-[1,2,3]triazolo[4,5-c]pyridin-5(4H)-yl)methanone]: the “PBMC 10 μM (% control)” value is listed as 1.0 % control.

For `C[C@H]1Cc2c(nnn2-c2ncc(F)cn2)CN1C(=O)c1cccc(C(F)(F)F)c1` [Example 304, (S)-(1-(5-fluoropyrimidin-2-yl)-6-methyl-6,7-dihydro-1H-[1,2,3]triazolo[4,5-c]pyridin-5(4H)-yl)(3-(trifluoromethyl)phenyl)methanone], the “PBMC 10 μM (% control)” value is 3.2 % control.

With `CC1c2nnn(-c3ncc(F)cn3)c2CCN1C(=O)c1cccc(Cl)c1Cl` (centres unmarked) [Example 174, (2,3-Dichlorophenyl)(1-(5-fluoropyrimidin-2-yl)-4-methyl-6,7-dihydro-1H-[1,2,3]triazolo[4,5-c]pyridin-5(4H)-yl)methanone], the “PBMC 10 μM (% control)” value was determined as 4.2 % control.

Regarding `Cn1ccc(-n2nnc3c2CCN(C(=O)c2cccc(C(F)(F)F)c2Cl)C3)n1` [Example 127, (2-Chloro-3-(trifluoromethyl)phenyl)(1-(1-methyl-1H-pyrazol-3-yl)-6,7-dihydro-1H-[1,2,3]triazolo[4,5-c]pyridin-5(4H)-yl)methanone], the “PBMC 10 μM (% control)” value is recorded as 9.2 % control.

As for `C[C@H]1Cc2c(nnn2-c2ccn[nH]2)[C@H](C)N1C(=O)c1cccc(C(F)(F)F)c1Cl` [Example 319, (2-chloro-3-(trifluoromethyl)phenyl)((4S,6S)-4,6-dimethyl-1-(1H-pyrazol-5-yl)-6,7-dihydro-1H-[1,2,3]triazolo[4,5-c]pyridin-5(4H)-yl)methanone], the “PBMC 10 μM (% control)” value is reported as −6.8 % control.

In the case of `Cc1ccnc(-n2nnc3c2CCN(C(=O)c2cccc(C(F)(F)F)c2Cl)[C@H]3C)c1` (single isomer, unassigned) [Example 186, (S*)-(2-chloro-3-(trifluoromethyl)phenyl)(4-methyl-1-(4-methylpyridin-2-yl)-6,7-dihydro-1H-[1,2,3]triazolo[4,5-c]pyridin-5(4H)-yl)methanone], the “PBMC 10 μM (% control)” value is given as −0.5 % control.

Turning to `COc1ccnc(-n2nnc3c2CCN(C(=O)c2cccc(C(F)(F)F)c2Cl)C3)c1` [Example 136, (2-Chloro-3-(trifluoromethyl)phenyl)(1-(4-methoxypyridin-2-yl)-6,7-dihydro-1H-[1,2,3]triazolo[4,5-c]pyridin-5(4H)-yl)methanone], the “PBMC 10 μM (% control)” value was 5.3 % control.

As to `C[C@@H]1Cc2c(nnn2-c2ccn[nH]2)CN1C(=O)c1cccc(C(F)(F)F)c1Cl` (single isomer, unassigned) [Example 350, (R*)-(2-chloro-3-(trifluoromethyl)phenyl)(6-methyl-1-(1H-pyrazol-5-yl)-6,7-dihydro-1H-[1,2,3]triazolo[4,5-c]pyridin-5(4H)-yl)methanone], the “PBMC 10 μM (% control)” value is 16.2 % control.

Regarding `C[C@H]1c2nnn(-c3ncccn3)c2CCN1C(=O)c1cccc(C(F)(F)F)c1Cl` (single isomer, unassigned) [Example 87, (4S*)-5-{[2-Chloro-3-(trifluoromethyl)phenyl]carbonyl}-4-methyl-1-pyrimidin-2-yl-4,5,6,7-tetrahydro-1H-[1,2,3]triazolo[4,5-c]pyridine], the “PBMC 10 μM (% control)” value came out at 3.3 % control.

Still in this experiment, the particulars now being: test compound 10 μM, LPS 30 ng/ml + 0.5 mM Bz-ATP.
As to `C[C@H]1c2nnn(-c3ncc(F)cn3)c2CCN1C(=O)c1cccc(C(F)(F)F)c1F` (single isomer, unassigned) [Example 178, (S*)-(2-fluoro-3-(trifluoromethyl)phenyl)(1-(5-fluoropyrimidin-2-yl)-4-methyl-6,7-dihydro-1H-[1,2,3]triazolo[4,5-c]pyridin-5(4H)-yl)methanone], the “PBMC 10 μM (% control)” value is recorded as −4.7 % control.

For the compound `Cc1ccnc(-n2nnc3c2CCN(C(=O)c2cccc(C(F)(F)F)c2Cl)[C@H]3C)c1` (single isomer, unassigned) [Example 186, (S*)-(2-chloro-3-(trifluoromethyl)phenyl)(4-methyl-1-(4-methylpyridin-2-yl)-6,7-dihydro-1H-[1,2,3]triazolo[4,5-c]pyridin-5(4H)-yl)methanone], the “PBMC 10 μM (% control)” value is reported as −0.5 % control.
